The text below walks through data of article PMC11698612, “Roles of NET Peptides With Known Antimicrobial Activity and Toxicity in Immune Response” (Journal of Immunology Research, 2024).

Entries after “also recorded” stand apart in the source; their conditions may differ.

The test system of data set [1] is TIB-71 RAW 264.7 macrophages. The data set is described as follows: MTT cytotoxicity assay. It counts as cell-based, Mus musculus. The settings on record: for cytotoxicity (MTT), broad screening / cytotoxicity (MTT) / concentration from which NET1 and NET2 displayed similar cytotoxicity: LPS-free; for cytotoxicity (MTT), broad screening: peptide 0.125-64 µg/mL; for cytotoxicity (MTT), broad screening / cytotoxicity (MTT): triplicates; for cytotoxicity (MTT): peptide concentrations up to 4 μg/mL; for concentration from which NET1 and NET2 displayed similar cytotoxicity: screening 64 to 0.125 µg/mL; for increase of toxicity compared to that in the absence of LPS: with LPS (1, 10, 100 ng/mL) versus without LPS. The procedure: The TIB-71 RAW 264.7 macrophage line, which was obtained from Mus musculus, was used in this study, and this cell line was supplied by ATCC (Manassas, VA, USA). The MTT Cell Proliferation Kit (Sigma–Aldrich, St. Louis, MO, USA), a colorimetric method, was used to evaluate the damage caused by the peptides in eukaryotic cells. TIB-71 RAW 264.7 macrophages were revived under appropriate culture conditions (37°C, 5% CO2) to prepare for the experiment. The final concentration of peptides ranged 0.125–64 μg/mL. Samples were examined in triplicates for each concentration. Cells incubated without peptide treatment under the same conditions were used as the control. Magainin 2 (Mag2), a known natural AMP with no cytotoxic effects, was used as a positive control. The results were obtained using a 96-well plate reader at 550 and 690 nm.
(In general: Formazan colour is commonly taken as a measure of viable cells.)

Data set [2] deals with IFN-γ secretion from TIB-71 macrophages. The data set is described as follows: IFN-γ secretion by ELISA. In kind it is cell-based, mouse. The procedure:
Within the scope of the ELISA study, the effect of varying concentrations of the peptides we synthesized on the mouse macrophage cell line was examined. In this study, a cell line that was not treated with AMPs and LPS, a cell line treated only with AMPs, a cell line treated only with LPS, and a cell line treated with both LPS and AMPs were used. To find the changing TNF-α ratio after incubation, the kit named Mouse Tumor Necrosis Factor α ELISA Kit-RAB0477 (Sigma-Aldrich) was applied according to the protocol. Graphpad Prism (9.0.0) was utilized for performing a one-way ANOVA test (α = 0.05) for the statistical analysis. Similarly, ELISA was applied to measure the change in IFN-γ levels in response to the peptides and LPS. In this experiment, the Mouse IFN-γ ELISA Kit-E-EL-[…] was applied according to the specified kit protocol, and the results were evaluated.
(ELISA stands for enzyme-linked immunosorbent assay.)

Data set [3] deals with TNF-α secretion from TIB-71 macrophages. The data set is described as follows: TNF-α secretion by ELISA. In kind it is cell-based, mouse. The settings on record: for TNF-α response: peptide together with LPS (50 ng/mL), NET1 versus peptide only, NET2 at 2 or 4 µg/mL. The procedure: Within the scope of the ELISA study, the effect of varying concentrations of the peptides we synthesized on the mouse macrophage cell line was examined.
In this study, a cell line that was not treated with AMPs and LPS, a cell line treated only with AMPs, a cell line treated only with LPS, and a cell line treated with both LPS and AMPs were used. To find the changing TNF-α ratio after incubation, the kit named Mouse Tumor Necrosis Factor α ELISA Kit-RAB0477 (Sigma–Aldrich) was applied according to the protocol. Graphpad Prism (9.0.0) was utilized for performing a one-way ANOVA test (α = 0.05) for the statistical analysis.

In data set [4] the test system is IL-6 expression in TIB-71 macrophages. Kind of data set: IL-6 expression by western blotting. It counts as cell-based, mouse. As to conditions: for IL-6 expression: peptide alone, normalized to β-actin, versus unstimulated cells, repeated twice. The procedure: Protein was extracted from TIB-71 cells for use in western blotting. For this purpose, the supernatant of the cells grown in the appropriate environment was separated for ELISA, whereas protein was extracted from the cellular pellets. Protein obtained using the Protein Extraction Kit (Abcam, Cambridge, UK) was prepared for western blotting. The concentrations of protein samples were determined using the Pierce BCA protein assay kit (Thermo Fisher Scientific). The results were analyzed by reading them on a 96-well plate reader at 565 nm. IL-6 was separated by 12% (w/v) SDS-PAGE and transferred onto a PVDF membrane using the wet transfer technique to compare the expression levels of the markers. Proteins were measured using horseradish peroxidase (HRP)-based clarity western ECL substrate and read using ChemiDoc devices. The area of the bands obtained in the western blotting results was computed using Image Lab software. Specifically, the volume occupied by the bands on the membrane was determined, and the band volume of IL-6 was normalized to that of β-actin to assess protein expression in a semiquantitative manner. Microsoft Excel was used for the semiquantitative analysis. IL-6 secretion by mouse macrophages in response to AMP exposure was examined by GraphPad Prism 9.0.0 one-way ANOVA test (GraphPad, La Jolla, CA, USA).

The mark [5] stands for this setting: peptide 0.5 µg/mL, response to decreasing LPS concentrations (1, 10, 100 ng/mL).
Where [6] appears, read: peptide 2 µg/mL, LPS 1, 10, 100 ng/mL.
Where [7] appears, read: peptide 4 µg/mL, LPS 1, 10, 100 ng/mL.
Setting [8] is: peptide together with LPS (50 ng/mL).

Regarding “RLLLRLLRRLLRLLLR-NH2 [NET1, designed LL-37-like 16-amino acid antimicrobial peptide, …-NH2]”, the “cytotoxicity (MTT), broad screening” value in data set [1] was “low cytotoxicity”. In addition, in data set [1], the “cytotoxicity (MTT)” value is “did not cause significant cytotoxicity”. Also, the “concentration from which NET1 and NET2 displayed similar cytotoxicity” value in data set [1] was determined as 4000 ng/mL. Also, the “cytotoxicity in the presence of LPS” value in data set [1] (setting [5]) is given as “decreased NET1 cytotoxicity”; in data set [1] (peptide 1 µg/mL, LPS 1, 10, 100 ng/mL), “lower cytotoxicity”; in data set [1] (setting [6]), “lower cytotoxicity than NET2”; in data set [1] (setting [7]), “lowest toxicity”. Moreover, the “increase of toxicity compared to that in the absence of LPS” value in data set [1] (peptide 4 µg/mL) is “threefold”. The IFN-γ secretion entry in data set [2] (setting [8]) is on record as “decrease IFN-γ expression”. Also, the TNF-α response entry in data set [3] is reported as “did not differ”. In addition, the “IL-6 expression compared with the other groups” value in data set [4] (NET1 at the lowest concentration of 2 µg/mL) is recorded as “threefold lower”. For the same substance, the IL-6 expression result in data set [4] (no LPS) is given as “decreased”.

In the case of “RLLLRLLRRLLRLLLR-NH2 [NET2, designed LL-37-like 16-amino acid antimicrobial peptide, …-NH2]”, the “cytotoxicity (MTT), broad screening” value in data set [1] is “low cytotoxicity; also recorded: lower toxicity than the other peptides”. Further, the “cytotoxicity (MTT)” value in data set [1] was “did not cause significant cytotoxicity”. Further, in data set [1], the “concentration from which NET1 and NET2 displayed similar cytotoxicity” value was 4000 ng/mL. For the same substance, the “cytotoxicity in the presence of LPS” value is listed as “increased cytotoxicity” in data set [1] (setting [5]), “increased with as the LPS concentration decreased” in data set [1] (setting [6]) and “increased as the LPS concentration decreased” in data set [1] (setting [7]). In addition, in data set [1] (peptide 4 µg/mL), the “increase of toxicity compared to that in the absence of LPS” value is recorded as “tenfold”. Moreover, the IFN-γ secretion result in data set [2] (peptide alone, LPS-free medium, three concentrations, versus control, one-way ANOVA) is given as “lower IFN-γ expression than NET1; also recorded: significantly increased”; in data set [2] (setting [8]), “significantly increased”. The TNF-α secretion result in data set [3] (peptide alone, LPS-free medium) is given as “decreased with decreasing peptide concentrations”. In data set [3], the TNF-α response result is given as “increased significantly”. Further, the “IL-6 expression lower than that in NET1-treated cells” value in data set [4] (NET2 used alone, no LPS) stood at 50%. Besides, the “IL-6 expression in cells treated with LPS” value in data set [4] (peptide 8 µg/mL with LPS) is “anti-inflammatory effect”. Also, the “IL-6 expression in combination with LPS” value in data set [4] (peptide 2 and 4 µg/mL with LPS, versus the other groups) is “significantly increased”. In addition, the IL-6 expression result in data set [4] (no LPS) was “reduced IL-6 expression”.
